The text below walks through data of patent US10358467B2, “Therapeutic targets for cancer progression” (The Regents of the University of California, priority 2015, dated 2019).

Data set [1] concerns DLD1 cells. Put plainly: Anchorage-independent tumor growth assay. To be noted: soft agar. It counts as cell-based, human. How it is done:
Anchorage-independent growth of DLD1 cells was analyzed in agar as described previously (Wallert M A, 2007). Briefly, petri plates (60 mm) were pre-layered with 3 ml 1% Bacto agar (Life Technologies) in DMEM containing 10% FBS. Approximately ˜5000 DLD1 cells stably expressing various DAPLE constructs were then plated on top in 3 ml of 0.3% agar-DMEM with 10% FBS. All assays were carried out using three replicate plates at a seeding density of ˜5000 cells/plate. Following overnight incubation in 5% CO2 incubator, 1 ml DMEM supplemented with 2% FBS was added to maintain hydration. After 2 wks of growth, colonies were stained with 0.005% crystal violet/methanol for 1 h, and subsequently photographed by light microscopy. The number of colonies in ˜15-20 randomly-selected fields were counted under 10× magnification. The remaining DLD1 cells were lysed and analyzed by immunoblotting to confirm DAPLE construct expression. Each experiment was analyzed in triplicate.

The test system of data set [2] is Ras-transformed NIH3T3 cells. Put plainly: Transformation assay, colony formation in soft agar. It counts as cell-based. To be noted: NIH3T3 co-expressing HA-KRas G12V. As for the experimental part:
Neoplastic transformationin Ras-transformed NIH3T3 fibroblasts was analyzed using standard assays of colony formation in soft agar as described previously (Clark et al, 1995). Low passage NIH3T3 cells (˜5000) stably co-transfected with appropriate myc-DAPLE construct (2 μg cDNA) and HA-Ras G12V (1 μg cDNA) were analyzed for their ability to form tumor foci in soft agar plates. Plates were incubated in 5% CO2 at 37° C. for ˜2 weeks in growth media supplemented with 2% FBS. They were finally incubated with 0.1% (wt/vol)dimethylthiazol-2-yl)2 2,5-diphenyl tetrazolium bromide (MTT; Sigma) in PBS for 1 h to visualize colonies. The remaining NIH3T3 cells not used for this assay were lysed and analyzed for myc-DAPLE and Ha-Ras G12V expression by immunoblotting.

Data set [3] has as its system DLD1 cells. Put plainly: Anchorage-dependent tumor growth assay. It counts as cell-based, human. The conditions noted are these: for inhibition of anchorage-dependent tumor growth: DLD1 cells, plastic plates. How it is done:
Anchorage-dependent growth was monitored on solid (plastic) surface as described previously (Franken et al, 2006). Briefly, anchorage-dependent growth was monitored on solid (plastic) surface. Approximately ˜1000 DLD1 cells stably expressing various DAPLE constructs were plated in 6-well plates and incubated in 5% CO2 at 37° C. for ˜2 weeks in 0.2% FBS growth media. Colonies were then stained with 0.005% crystal violet for 1 h. The remaining DLD1 cells were lysed and analyzed by immunoblotting to confirm DAPLE construct expression. Each experiment was analyzed in triplicate.

Data set [4] has as its system β-Catenin/TCF/LEF pathway in DLD1 7TGP cells. Put plainly: β-Catenin reporter assay (7TGP). It counts as cell-based, human. The conditions noted are these: stable expression, starved and stimulated with Wnt5a, versus vector control. As for the experimental part: These assays were carried out using the well-established reporter 7×Tcf-eGFP (7TGP) (Fuerer & Nusse, 2010). Stable cells lines expressing this reporter were generated by lentiviral transduction and subsequent selection using standard procedures. Lentiviral infection and selection were performed according to standard procedures. Briefly, 10 cm plates DLD1 cells at 70% confluency were incubated with media containing 8 μg/mL polybrene and 10 μl of lentivirus for 6 h. After 24 hours post infection, selection of puromycin-resistant clones was initiated by adding the antibiotic at 2 μg/ml final concentration. The resultant DLD1-7TGP stable cells were subsequently transfected with various myc-DAPLE constructs and selected for G418 resistance as described earlier in methods. The DLD1-7TGP cells stably expressing myc-DAPLE were incubated overnight at 0.2% FBS, analyzed by fluorescence microscopy, and photographed prior to lysis. Whole cell lysates samples were then boiled in Laemmli's sample buffer and GFP protein expression was monitored by immunoblotting.

In data set [5] the test system is NIH3T3 cells. Put plainly: 3D spheroid matrigel invasion assay. The data set is classed as cell-based. The conditions noted are these: in response to Wnt5a. How it is done:
NIH3T3 cell invasion assay in 3D culture was performed according to the manufacturer's protocol (Trevigen, Cultrex 3D Spheroid BME Cell Invasion Assay, catalog #3500-096-K). Briefly, non-invasive NIH3T3 cells (˜3000 cells) transfected with empty vector (control) or myc-DAPLEconstructs were incubated first in the Spheroid Formation extracellular matrix (ECM) containing 0.2% FBS for 3 days. Invasion matrix was then added and layered on top with media containing FBS. […] Photographs were analyzed and pseudocolored by Image J to reflect cell density.

The target in data set [6] is T1, GST-Gαi3·Gβγ preformed complexes (Rattus norvegicus, UniProt P08753).
T1 construct: made in house; host or cells: E. coli BL21 (DE3) for GST-Gαi3; Gβγ endogenous from HEK293T lysate
Put plainly: Gβγ displacement assay. The conditions noted are these: 0.05-1 μM WT or 1 μM F1675A. It counts as binding. How it is done:
This assay was performed as described previously (Garcia-Marcos et al, 2009). Briefly, GST alone or GST-Gαi3 proteins immobilized on glutathione-agarose beads were incubated overnight at 4° C. with HEK293T cell lysates in binding buffer [50 mM Tris-HCl, pH 7.4, 100 mM NaCl, 0.4% (v:v) NP-40, 10 mM MgCl2, 5 mM EDTA, 2 mM DTT, protease inhibitor cocktail supplemented with 30 μM GDP]. Unbound Gβγ-subunits were washed twice with the same buffer and proteins bound to the glutathione-agarose beads divided into equal aliquots containing ˜5 μg (˜0.4 μM) GST-fusion proteins. Aliquots were incubated with increasing concentrations (0.05-1 μM) of purified His-DAPLE-CT (1650-2028) wild-type or 1 μM His-DAPLE-CT F1675A in binding buffer supplemented with GDP (˜200 μl) for 5 h at 4° C. Glutathione-agarose beads were washed and bound proteins eluted by boiling in Laemmli sample buffer and separated by SDS-PAGE.

Data set [7] addresses T2, His-Gαi3 (Rattus norvegicus, UniProt P08753).
T2 construct: His; made in house; host or cells: E. coli BL21 (DE3)
Put plainly: GTPγS binding assay. It counts as biochemical. The conditions noted are these: 0-2 μM, 15 min. As for the experimental part: GTPγS binding was measured using a filter binding method as described previously (Garcia-Marcos et al, 2010; Garcia-Marcos et al, 2011b). His-Gαi3 (100 nM) was preincubated with different concentrations of His-DAPLE-CT (aa 1650-2028) for 15 min at 30° C. in assay buffer [20 mM Na-HEPES, pH 8, 100 mM NaCl, 1 mM EDTA, 25 mM MgCl2, 1 mM DTT, 0.05% (w:v) C12E10]. Reactions were initiated at 30° C. by adding an equal volume of assay buffer containing 1 μM [^35S] GTPγS (˜50 c.p.m/fmol). Duplicate aliquots (25 μl) were removed at different time points, and binding of radioactive nucleotide was stopped by addition of 3 ml, ice-cold wash buffer (20 mM Tris-HCl, pH 8.0, 100 mM NaCl, 25 mM MgCl2). The quenched reactions were rapidly passed through BA-85 nitrocellulose filters (GE Healthcare) and washed with 4 ml wash buffer. Filters were dried and subjected to liquid scintillation counting. To determine the specific nucleotide binding, the background [^35S]GTPγS detected in the absence of G protein was subtracted from each reaction and data expressed as percentage of the [^35S] GTPγS bound by His-Gαi3 in the absence of His-DAPLE-CT.

In data set [8] the target is T3, GST-FZD7R-CT (Homo sapiens, UniProt O75084).
T3 construct: the GST-tagged cytoplasmic tail of FZD7R; made in house; host or cells: bacteria (E. coli BL21 (DE3)); plasmid a gift of R. Yao
Put plainly: GST-FZD7-CT pulldown of His-Gαi3. The conditions noted are these: His-Gαi3 preloaded with GDP, in the presence of DAPLE-CT. The data set is classed as binding. How it is done: GST-FZD7-CT and GST-PBD constructs were immobilized on glutathione-Sepharose beads directly from bacterial lysates by overnight incubation at 4° C. with constant tumbling. Next morning, GST-FZD7-CT immobilized on glutathione beads were washed and subsequently incubated with His-tagged DAPLE-CT or Gαi3 proteins at 4° C. with constant tumbling. Washes and immunoblotting were performed as previously.

For data set [9], the target named is T2, His-Gαi3. Put plainly: Steady-state GTPase assay. To be noted: parallel reactions, WT replaced by F1675A. The data set is classed as biochemical. As for the experimental part: Under the experimental conditions of steady-state GTPase assays, GTP hydrolysis occurs as a two-step reaction, i.e., 1) GDP is released from the G protein and exchanged for GTP, and 2) the GTP loaded is hydrolyzed. Nucleotide exchange is the rate limiting step in this process because it is ˜50-100 times slower than GTP hydrolysis by Gαi subunits (Mukhopadhyay & Ross, 2002). Thus, the steady-state GTPase activity reflects the rate of nucleotide exchange, and was performed as described previously (Garcia-Marcos et al, 2010; Garcia-Marcos et al, 2012; Garcia-Marcos et al, 2011b). Briefly, His-Gαi3 (100 nM) was preincubated with different concentrations of His-DAPLE-CT (aa 1650-2028) for 15 min at 30° C. in assay buffer [20 mM Na-HEPES, pH 8, 100 mM NaCl, 1 mM EDTA, 2 mM MgCl2, 1 mM DTT, 0.05% (w:v) C12E10]. GTPase reactions were initiated at 30° C. by adding an equal volume of assay buffer containing 1 μM [γ-^32P]GTP (˜50 c.p.m/fmol). […] Samples were then centrifuged for 10 min at 10,000×g, and 500 μl of the resultant supernatant were scintillation counted to quantify released [^32P]Pi. For the time course experiments, data was expressed as raw c.p.m. For the dose-dependence curve experiments, the background [^32P]Pi detected at 15 min in the absence of G protein was subtracted from each reaction and data expressed as percentage of the Pi produced by His-Gαi3 in the absence of His-DAPLE-CT.

“DAPLE-FA: full length myc-DAPLE with F1675A mutation in the GBA motif, expressed in cells”: the “inhibition of anchorage-independent tumor growth” value in data set [1] is “enhanced oncogenicity”. Also, the “reduction of number of colonies in soft-agar” value in data set [2] is listed as “failed to inhibit”. Moreover, the “inhibition of anchorage-dependent tumor growth” value in data set [3] was “failed to inhibit”.

For “DAPLE-WT: myc-tagged full length human DAPLE (SEQ ID NO: 2) expressed in cells from pcDNA 3.1”, the “eGFP signal (Wnt transcriptional activity)” value in data set [4] is given as “showed inhibition of eGFP”. The “invasion of matrigel by spheroids” value in [5] was “increase of invasion tracks”. Moreover, in data set [1], the “inhibition of anchorage-independent tumor growth” value is about 50%. In addition, in data set [2], the “reduction of number of colonies in soft-agar” value was about 65%. The “adherent colonies per well (tumor growth)” value in data set [3] (DLD1 cells stably expressing constructs, 2-3 weeks) is on record as “can inhibit tumor growth”. In addition, the “inhibition of anchorage-dependent tumor growth” value in data set [3] is on record as about 90%.

B1: His-DAPLE-CT FA: His-DAPLE-CT with F1675A mutation, Gαi3 binding-deficient mutant (protein)
chain: GTAPPYVGVRPCSASPSSEMVTLEEALEESNRSSPTHDTPSCRDDLLSDYFRKASDPPAIGGQPGPPAKKEGAKMPTNFVAPTVKMAAPTSEGRPLKPGQYVKPNFRLTEAEAPPSVAPRQAQPPQSLSLGRPRQAPVPPASHAPASRSASLSRAFSLASADLLRASGPEACKQESPQKLGAPEALGGRETGSHTLQSPAPPSSHSLARERTPLVGKAGSSCQGPGPRSRPLDTRRFSLAPPKEERLAPLHQSATAPAIATAGAGAAAAGSGSNSQLLHFSPAAAPAARTKPKAPPRSGEVATITPVRAGLSLSEGDGVPGQGCSEGLPAKSPGRSPDLAPHLGRALEDCSRGSVSKSSPASPEPGGDPQTVWYEYGCV
modifications: left off: small tags and cut ends
For the molecule B1, the “displacement of Gβγ from pre-assembled complex with GST-Gαi3” value in data set [6] is on record as “not”. Moreover, the “initial rate of nucleotide (GTPγS) binding by His-Gαi3” value in data set [7] was “not significantly affected”. Further, the “increase of Gαi3 binding to GST-FZD7R-CT” value in data set [8] was “not”. In [9], the “acceleration of steady-state GTPase activity diminished versus His-DAPLE-CT WT” value is over 90%.
